# From patent US5506215A, “1-(3'-fluoro-2',3'-dideoxy-β-D-ribofuranosyl)-5-substituted pyrimidine nucleosides” (Medivir AB, priority 1987, dated 1996)
# Several values for one entry are separate records, joined by “and”; a condition that tells them apart may be missing. Equal values may be shown once. Read-outs that look alike come from different tables or passages of the source.
# What was measured:
# HIV [1] = assay: Inhibition of HIV multiplication in cell culture, H9 cells (Koshida et al. method); format: cell-based; settings: for inhibition at 0.1 µg/mL: Human immunodeficiency virus 1, H9, 0.1 μg/ml; for inhibition at 10 µg/mL: Human immunodeficiency virus 1, H9, 10 μg/ml; for inhibition at 1 µg/mL: Human immunodeficiency virus 1, H9, 1 μg/ml
# Excerpt: The activity against human immunodeficiency virus (HIV) has been tested for the compounds listed and the resulting activities are shown in the Table below.
# The data in the Table were gathered and tests performed as described by Koshida et el., "Inhibition of Human Immunodeficiency Virus in vitro by Combination of 3'-Azido-3'-Deoxythymidine and Foscarnet" in Antimicrob Agents and Chemotherapy, Vol 33 (1989) p. 778-780 (on H9 cells for compounds X-XII) and by De Clercq et el, Nucleosides and Nucleotides, Vol 8 (1989) p. 659-671 (on MT4 cells, literature data for compounds XIV-XVI).
# [2] = Test II, cellular toxicity, F5000 cells; format: cell-based; settings: human, read-out: % inhibition of cell multiplication
# Description: (§1) F5000 cells, which are human embryo cells, 1×10^5 cells per plate, are incubated in Eagle's minimal essential medium, supplemented with Earle's salts, non-essential amino acids, 10% fetal calf serum, 10 mM hopes, 70 mg/l penicillin and 100 mg/l streptomycin, in absence or presence of test compounds. The number of cells per plate is determined after 48 h. Cells incubated in the absence of test compounds underwent one cell division cycle.
# [3] = Test II, cellular toxicity, H9 cells; format: cell-based; settings: human, read-out: % inhibition of cell multiplication
# Description: H9 cells, 2×10^7 cells per plate, are incubated in […] medium containing 10% fetal calf serum, 70 mg/l penicillin, 100 mg/l streptomycin and 10 mM hepes, in absence or presence of test compounds. The number of cells per plate is determined after 48 h. Cells incubated in the absence of test compounds then underwent two cell division cycles.
# as §1
# HIV (HTLV-IIIB) = assay: Test I, effect of compounds on HIV in H9 cells (HIV antigen containing cells); format: cell-based; settings: read-out: Concentration for 50% inhibition (IC50) of human immuno deficiency virus multiplication in cell culture
# Description: Materials and methods: HIV infection of H9 cells
# H9 cells, 10^5 cells per well on a 24 well plate, suspended in 2 ml RPMI-medium containing 10% fetal calf serum, 100 μg/ml penicillin, 10 μg/ml streptomycin sulfate and 2μg/ml polybrene are exposed to HIV (HTLV-IIIB) and different concentrations of the test compounds. The plates are incubated at 37° C. in 5% CO2 for 6-7 days. The contents in each well is then homogenized with a pipette and transferred to a centrifuge tube. After centrifugation for 10 min at 1500 rpm the supernatant is removed and the cell pellet is analyzed by fixing in methanol on glass plates. Human HIV positive serum diluted 1:80 or 1:160 is added and incubated for 30 min at 37° C. The plate is then washed with phosphate-buffered saline (PBS) containing Ca^2+ and Mg^2+. Sheep antihuman conjugate (FITC) is added and after a new incubation the plate is again washed with PBS. Contrast staining is done with Evans blue and after drying the frequency of HIV antigen containing cells is determined in a microscope.
# HIV [4] = settings: MT4 cells, literature data, cited from earlier work
# [5] = Human immunodeficiency virus 1, 6-7 days
smiles,measurement,setting,value
"CO[C@H]1[C@H](F)[C@@H](CO)O[C@H]1n1cc(C)c(=O)[nH]c1=O [Example X, 1-(3'-fluoro-2'-methoxy-2',3'-dideoxy-β-D-arabinofuranosyl)thymine]",% Inhibition of HIV multiplication,HIV [1]; 10 μg/ml,83% and 79%
same,inhibition at 0.1 µg/mL,HIV [1],58%
same,inhibition at 10 µg/mL,HIV [1],85%
"CO[C@H]1[C@H](N=[N+]=[N-])[C@@H](CO)O[C@H]1n1cc(C)c(=O)[nH]c1=O [Example XI, 1-(3'-azido-2'-methoxy-2',3'-dideoxy-β-D-arabinofuranosyl)thymine]",% Inhibition of HIV multiplication,HIV [1]; 0.1 μg/ml,32%
same,% Inhibition of HIV multiplication,HIV [1]; 1 μg/ml,38%
same,inhibition at 0.1 µg/mL,HIV [1],27%
same,inhibition at 1 µg/mL,HIV [1],21%
"C#C[C@H]1C[C@H](n2cc(C)c(=O)[nH]c2=O)O[C@@H]1CO [Example XII, 1-[2,3-Dideoxy-3-C-ethynyl-β-D-erythro-pentofuranosyl]thymine]",inhibition at 1 µg/mL,HIV [1],18%
same,inhibition at 10 µg/mL,HIV [1],54%
"CCCc1cn([C@H]2C[C@H](F)[C@@H](CO)O2)c(=O)[nH]c1=O [VSA 408, 1-(3'-F-2',3'-dideoxy-β-ribofuranosyl)-5-propyl-uracil]","inhibition at 48 h, 100 µM",[2],0%
same,"inhibition at 48 h, 250 µM",[3]; 250 μM,15%
same,IC50,HIV (HTLV-IIIB); [5],1000 nM
"CCc1cn([C@H]2C[C@H](F)[C@@H](CO)O2)c(=O)[nH]c1=O [VSA 410, 1-(3'-F-2',3'-dideoxy-β-D-ribofuranosyl)-5-ethyl-uracil]","inhibition at 48 h, 100 µM",[2],25%
same,"inhibition at 48 h, 100 µM",[3]; 100 μM,25%
same,IC50,HIV (HTLV-IIIB); [5],< 1000 nM
"O=c1ccn([C@H]2C[C@H](F)[C@@H](CO)O2)c(=O)[nH]1 [VSA 417, 1-(3'-F-2',3'-dideoxy-β-D-ribofuranosyl)-uracil]","inhibition at 48 h, 100 µM",[2],10%
same,IC50,HIV (HTLV-IIIB); [5],500 nM
"CC(=O)OC[C@H]1O[C@@H](n2cc(C)c(=O)[nH]c2=O)C[C@@H]1F [VSB 423, 1-(5'-acetyl-3'-fluoro-2',3'-dideoxy-β-D-ribofuranosyl)-5-methyluracil]",IC50,HIV (HTLV-IIIB); 6-7 days,< 10 nM
"O=c1[nH]c(=O)n([C@H]2C[C@H](F)[C@@H](CO)O2)cc1Br [XIV, 5-bromo-1-(3'-fluoro-2',3'-dideoxy-β-D-ribofuranosyl)uracil]",% Inhibition of HIV multiplication,HIV [4]; 0.1 μg/ml,50%
"O=c1[nH]c(=O)n([C@H]2C[C@H](F)[C@@H](CO)O2)cc1I [XV, 5-iodo-1-(3'-fluoro-2',3'-dideoxy-β-D-ribofuranosyl)uracil]",% Inhibition of HIV multiplication,HIV [4]; 0.1 μg/ml,50%
O=c1[nH]c(=O)n([C@H]2C[C@H](F)[C@@H](CO)O2)cc1Cl [XVI],% Inhibition of HIV multiplication,HIV [4]; 0.04 μg/ml,50%
